This note sets out measurements from patent publication US5468760A, “Aralkyl-N-hydroxyureas as inhibitors of 5-lipoxygenase and oxidation of low density lipoprotein” (American Home Products Corporation, priority 1993, dated 1995).

One test deals with T1, 5-Lipoxygenase (Homo sapiens, UniProt P09917).
T1 construct: endogenous in cells; host or cells: human whole blood from male donors (results expressed per 10^6 neutrophils)
T1 sequence (P09917 1-674): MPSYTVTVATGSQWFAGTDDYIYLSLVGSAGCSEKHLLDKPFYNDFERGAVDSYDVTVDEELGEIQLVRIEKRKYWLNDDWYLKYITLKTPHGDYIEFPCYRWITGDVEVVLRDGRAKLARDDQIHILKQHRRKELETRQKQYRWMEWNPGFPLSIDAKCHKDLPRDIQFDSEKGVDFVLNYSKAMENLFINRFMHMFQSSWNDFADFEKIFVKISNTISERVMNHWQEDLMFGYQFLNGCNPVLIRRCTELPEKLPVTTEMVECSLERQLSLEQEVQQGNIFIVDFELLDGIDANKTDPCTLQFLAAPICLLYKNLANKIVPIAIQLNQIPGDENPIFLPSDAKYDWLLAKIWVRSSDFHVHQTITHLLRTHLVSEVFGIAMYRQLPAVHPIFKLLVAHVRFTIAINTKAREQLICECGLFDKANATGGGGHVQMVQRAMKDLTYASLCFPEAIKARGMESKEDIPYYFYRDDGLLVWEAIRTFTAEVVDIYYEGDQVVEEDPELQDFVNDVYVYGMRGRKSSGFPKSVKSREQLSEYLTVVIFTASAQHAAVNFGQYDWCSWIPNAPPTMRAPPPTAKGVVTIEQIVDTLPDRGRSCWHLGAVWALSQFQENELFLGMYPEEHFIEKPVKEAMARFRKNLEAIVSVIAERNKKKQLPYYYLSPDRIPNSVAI
In words: Inhibition of 5-Lipoxygenase in Human Whole Blood (LTB4, calcium ionophore A23187). Type of test: cell-based. How it is done:
1. Inhibition of 5-Lipoxygenase in Human Whole Blood
Blood is obtained in 50-100 ml quantities from male donors. White blood cell counts and differentials are made. Two ml of blood are placed in a 15 ml polypropylene test tube. Test compounds are solubilized in dimethylsulfoxide and diluted in 1:10 in 10% bovine serum albumin in phosphate buffered saline, pH 7.4 resulting in a final dimethylsulfoxide concentration of 0.1% in the blood. Then, solutions of test compounds are added to the blood in a shaking water bath at 37° C. for 10 minutes prior to the addition of 30 μM calcium ionophore (A23 187, Sigma). After ionophore administration, whole blood samples are mixed and incubated for 20 minutes at 37° C. in a shaking water bath. Incubation is terminated by placing samples in an ice bath and immediately adding ethylene glycol-bis-(β-aminoethyl ether)-N,N,N',N'-tetraaceticacid (10 mM). Samples are mixed and centrifuged at 1200 x g for 15 minutes at 4° C. Preparation of samples for evaluation by RIA or ELISA is carried out by the following protocol. Plasma is removed from sample tubes, placed in 15 ml polypropylene test tubes containing 8 ml methanol, and then vortexed to precipitate protein. Samples are stored at -70° C. overnight. The next day, samples are centrifuged at 200 x g for 15 minutes at 4° C. to pellet the precipitate. Samples are dried in a Savant SpeedVac Concentrator, Model SVC 200H, reconstituted to original volume with ice cold RIA or ELISA buffer, and stored at -70° C. until assayed. The assay for eicosanoids (LTB4, TxB2, and PGE2) is performed as described by the manufacturer of the [^3 H]-RIA kit or ELISA kit (LTB4 -Amersham, TxB2 and PGE2 -Caymen Chemical).
The total eicosanoid level in 2 ml of blood is calculated and reported as ng/10^6 neutrophils. Significance is determined by a one-way analysis of variance with least significant difference (LSD) comparisons to control (p≤0.05) and IC50 's (μM) are determined by regression analysis (Finney, 1978). Drug effects are expressed as percent change from control values.

Test [1] has as its system LT-dependent bronchoconstriction. Description: Inhibition of Bronchoconstriction in Guinea Pigs Induced by Exogenously Administered Antigen. It counts as in vivo, guinea pig (male). Particulars: Cavia porcellus, 5 min, 5 min post-antigen challenge; for inhibition in vivo at 10 mg/kg: iv, 10 mg/kg i.v. As for the experimental part:
4. Inhibition of Brochoconstriction in Guinea Pigs Induced by Exogenously Administered Antigen
Male guinea pigs (Charles River, Wilmington, Mass.) were sensitized 3-4 weeks prior to antigen challenge by administration of 2 i.m. injections of ovalbumin, 1 into each hind limb (35 mg total). Sensitized animals (500-600 g) were fasted overnight prior to experimentation. Conscious animals were then dosed p.o. with drug or vehicle alone (0.5% Tween 80 in H2 O) at the indicated times prior to antigen challenge, or anesthetized animals were dosed i.v. with drug or vehicle alone (DMSO) 5 min prior to antigen challenge. Animals were anesthetized by urethane (2.8 g/kg i.p.). A carotid artery and jugular vein were cannulated to allow for the monitoring of blood pressure and the administration of drugs, respectively. The trachea was then cannulated and connected to a Harvard Apparatus rodent ventilator (S. Natick, Mass.). Spontaneous respiration was abolished by the administration of succinylcholine (2.5 mg/kg i.v.). The animals were then ventilated with room air at a rate of 65 breaths per min. Airway inflation pressure was measured using a Statham pressure transducer (Gould Instruments, Cleveland, Ohio) connected to the tracheal cannula via a side-arm and recorded on a Grass Instruments recorder (Quincy, Mass.). The tidal volume (approximately 10 cc/kg) was adjusted to give a baseline inflation pressure of 8-10 cm H2 O at end inspiration. Animals were then allowed 20 min to stabilize.
Following the stabilization period, animals were given i.v. injections of pyrilamine (5 mg/kg), propranolol (0.1 mg/kg) and indomethacin (10 mg/kg) at 15, 10 and 5 min, respectively, prior to antigen challenge. This pretreatment results in an LT-dependent bronchoconstriction following antigen challenge, which was accomplished by i.v. administration of ovalbumin (10 mg/kg). Only one bronchoconstriction per animal was induced. End-inspiratory inflation pressure (in cm H2 O over baseline) was measured at 5 min post-antigen challenge. A mean value and standard error for the % inhibition of control bronchoconstriction in each drug-treated group was then calculated.

A further test has as its system LTB4 Synthesis. In words: Reverse Passive Arthus Reaction (pleurisy), LTB4 in pleural exudate. Type of test: in vivo, rat (male Lewis). The note with it: for ED50: Rattus norvegicus, po, values in parentheses are ED50, read-out: (ED50) Inhibition of LTB4; for ED50 / % Inhibition of LTB4: standard drugs. How it is done:
3. Reverse Passive Arthus Reaction
A reverse passive Arthus reaction is induced in the pleural cavity of male Lewis rats (150-200 g; fasted overnight prior to use) by the intravenous administration of bovine serum albumin (BSA; 4 mg/0.2 ml) followed 30 minutes later by the injection of rabbit anti-BSA (1 mg/0.2 ml; lyophilized IgG fraction; Organon Teknika, West Chester, Pa.) into the right pleural space under halothane anesthesia. Drugs or vehicle (0.5% Tween-80) control are administered orally in a volume of 1 ml/100 g body weight at 1 hour prior to the anti-BSA. Animals are sacrificed at either the time of peak eicosanoid production (i.e. 5 minutes after anti-BSA for immunoreactive TxB2, 10 minutes for immunoreactive LTB4, 20 minutes for immunoreactive LTC4) or at the time of peak neutrophil infiltration (4 hours after anti-BSA) by CO2 inhalation. The pleural cavity is then exposed., the fluid exudate removed by gentle vacuum aspiration and the volume of exudate is recorded. For the determination of cellular infiltration, the pleural cavity is rinsed with 3 ml of 0.1% EDTA in sterile saline, and the recovered wash is pooled with the exudate. Cell number is determined on a model ZBI Coulter counter. For determination of eicosanoid production, undiluted pleural exudate is microfuged and the supernatant is extracted with ethanol (8-10 times volume). Extracts are either stored at -20° C., or are evaporated to dryness under a stream of N2 and reconstituted in radioimmunoassay (RIA) buffer.
Eicosanoids are quantitated by RIA according to the procedure specified by the RIA kit manufacturer (Advanced Magnetics, Cambridge, Mass.). Briefly, 100 μl of ^3 H-labeled eicosanoid and 100 μl of specific antibody are sequentially added to 100 μl of extracted pleural exudate in BGG-phosphate buffer which contains 0.01M phosphate, 0.1% bovine gamma globulin and 0.1% sodium azide at pH 7.0. Antibody-bound eicosanoid is separated from unbound eicosanoid by the addition of 750 μl of dextran (0.4%)-coated charcoal (Norit A) containing 0.1% sodium azide. The mixture is centrifuged at 2000 RPM at 5° C. for 15 minutes to pellet the charcoal and adsorbed unbound eicosanoid. Antibody-bound labeled eicosanoid is quantitated by counting in a liquid scintillation counter, and is correlated to concentration by a standard curve.

One may read the inhibition as the share of the control response that was lost under treatment. The inhibition in vivo is how much of the control response was suppressed. Usually ED50 stands for the dose at which the effect has come halfway, by size or by number of responders.

As to `Cc1oc(-c2cccc(C(F)(F)F)c2)nc1COc1cccc(CN(O)C(N)=O)c1` [Example 10, 1-Hydroxy-1-[3-[2-(3-trifluoromethyl-phenyl)-5-methyl-oxazol-4-ylmethoxy]-benzyl]-urea], the inhibition at 1 µM at 5-Lipoxygenase was found to be 51%.

For the compound `Cc1oc(-c2ccc(C(F)(F)F)cc2)nc1COc1cc(F)cc(CN(O)C(N)=O)c1` [Example 12, 1-[3-Fluoro-5-[5-methyl-2-(4-trifluoromethyl-phenyl)-oxazol-4-ylmethoxy]-benzyl]-1-hydroxy-urea], on 5-Lipoxygenase (10 μM), the inhibition at 10 µM is 85%.

As for `Cc1oc(-c2ccccc2)nc1COc1cccc(CN(O)C(=O)N(C)O)c1` [Example 18, 1,3-Dihydroxy-3-methyl-1-[3-(5-methyl-2-phenyl-oxazol-4-ylmethoxy)benzyl]-urea], the inhibition at 10 µM at 5-Lipoxygenase (10 μM) was determined as 69%. As to `COc1ccc(-c2nc(COc3cccc(CN(O)C(N)=O)c3)cs2)cc1` [Example 7, 1-Hydroxy-1-[3-[2-(4-methoxy-phenyl)-thiazol-4-ylmethoxy]-benzyl]-urea], the inhibition at 1 µM on 5-Lipoxygenase worked out at 50%. Also, the inhibition in vivo at 10 mg/kg in test [1] is 58%. The same compound yielded an inhibition in vivo at 25 mg/kg in test [1] (po, 25 mg/kg p.o.) of 18%. As for `NC(=S)N(O)Cc1cccc(OCc2coc(-c3ccc(F)cc3)n2)c1` [Example 4, 1-Hydroxy-1-[3-[2-(4-fluoro-phenyl)-oxazol-4-ylmethoxy]-benzyl]-thiourea], the inhibition at 1 µM on 5-Lipoxygenase came out at 61%. The same compound yielded an inhibition in vivo at 10 mg/kg in test [1] of 53%. As to `O=C1CCN(c2ccccc2)N1` [Phenidone, reference compound], in the test with LTB4 Synthesis (p.o.), the ED50 is 10 mg/kg.

Turning to `COc1ccc2c(c1)c(CC(=O)O)c(C)n2C(=O)c1ccc(Cl)cc1` [Indomethacin, reference compound], in the test with LTB4 Synthesis (4 mg/kg p.o.), the “% Inhibition of LTB4” value amounted to 12%.

On to `COc1ccc2cc([C@H](C)C(=O)O)ccc2c1` [Naproxen, reference compound], for which the “% Inhibition of LTB4” value in the test with LTB4 Synthesis (4 mg/kg p.o.) was found to be 0%. Regarding `Cc1oc(-c2ccccc2)nc1COc1cccc(C(C)N(O)C(N)=O)c1` (stereo not shown) [Example 14, 1-Hydroxy-1-[1-[3-(5-methyl-2-phenyl-oxazol-4-ylmethoxy)-phenyl]-ethyl]-urea], the inhibition at 10 µM at 5-Lipoxygenase (10 μM) is 80%. Turning to `Cc1oc(-c2ccc(Cl)cc2)nc1COc1cccc(CN(O)C(N)=O)c1` [Example 8, 1-[3-[2-(4-Chloro-phenyl)-5-methyl-oxazol-4-ylmethoxy]-benzyl]-1-hydroxy-urea], the inhibition at 1 µM on 5-Lipoxygenase came to 77%. Further, the “% Inhibition LTB4 Synthesis” value in the test with LTB4 Synthesis (10 mg/kg, p.o.) turned out to be 39%. Further, the inhibition in vivo at 10 mg/kg in test [1] is 41%.

On to “1,3-Dihydroxy-1-[4-(5-methyl-2-phenyl-oxazol-4-ylmethoxy)-benzyl]-urea [Example 17]”, for which the “% Inhibition of LTB4” value at 5-Lipoxygenase (10 μM) is given as 83%. Take `NC1=NN(c2cccc(C(F)(F)F)c2)CC1` [BW755C, reference compound]: the ED50 in the test on LTB4 Synthesis (p.o.) worked out at 23 mg/kg. Take `CC(C(=O)O)c1cccc(C(=O)c2ccccc2)c1` (stereo not shown) [Ketoprofen, reference compound]: the “% Inhibition of LTB4” value in the test with LTB4 Synthesis (10 mg/kg p.o.) worked out at 35%. The same measure, in the same setting: as for `O=C(O)Cc1ccccc1Nc1c(Cl)cccc1Cl` [Diclofenac, reference compound], the figure is 0%. For the compound `CC(/C=C/c1cccc(OCc2csc(-c3ccccc3)n2)c1)N(O)C(N)=O` (stereo not shown) [Example 15, (E)-1-Hydroxy-1-[1-methyl-3-[3-(2-phenyl-thiazol-4-ylmethoxy)-phenyl]-allyl]-urea], at 5-Lipoxygenase (10 μM), the inhibition at 10 µM was determined as 47%.

In the case of `Cc1oc(-c2ccc(Cl)cc2)nc1COc1cccc(/C=C/C(C)N(O)C(N)=O)c1` (stereo not shown) [Example 16, (E)-1-[3-[3-[2-(4-chlorophenyl)-5-methyl-oxazol-4-ylmethoxy]-phenyl]-1-methyl-allyl]-1-hydroxyl-urea], the inhibition at 10 µM on 5-Lipoxygenase (10 μM) came to 57%. As for `Cc1oc(-c2cc(C(F)(F)F)cc(C(F)(F)F)c2)nc1COc1cccc(CN(O)C(N)=O)c1` [Example 11, 1-[3-[2-(3,5-Bis-trifluoromethyl-phenyl)-5-methyl-oxazol-4-ylmethoxy]-benzyl]-1-hydroxy-urea], on 5-Lipoxygenase (10 μM), the inhibition at 10 µM stood at 57%.
